Measured values published in patent US10793589B2, “Resorcinarene-based amphipathic compound and use thereof” (Industry-University Cooperation Foundation Hanyang …, priority 2016, dated 2020).
“Also recorded” adds a separate entry of the source.

Key:
[1] = biological target: T1, uric acid-xanthine/H+ symporter (UapA) (Emericella nidulans, UniProt Q07307, G411V); experiment: UapA structural/thermal stability (FSEC, CPM assay); format: biochemical, Aspergillus nidulans; conditions: FIG. 5 (RGAs, FSEC), FIG. 6 (RMAs, CPM assay 40° C. 150 min, CMC+0.04 or CMC+0.2 wt %)
T1 construct: GFP; made in house; host or cells: Saccharomyces cerevisiae FGY217
Experimental: FIGS. 5A and 5B are a set of graphs illustrating a result of measuring the thermal stability of UapA in an aqueous solution caused by RGAs or DDM via fluorescence-detection size exclusion chromatography (FSEC):
FIGS. 6A and 6B are a set of graph illustrating a result of measuring thermal denaturation profile of UapA protein in DDM and novel RMAs (RMA-Cs and RMA-CEs) used at CMC+0.04 wt % (a) or CMC+0.2 wt % (b). Protein stability was assessed by CPM assay carried out at 40° C. for 150 min.
An experiment was carried out to measure the structural stability of a uric acid-xanthine/H^+ symporter (UapA) isolated from Aspergillus nidulans caused by RGAs and RMAs. The structural stability of UapA was measured using a sulfhydryl-specific fluorophore, N-[4-(7-diethylamino-4-methyl-3-coumarinyl)phenyl] maleimide (CPM).
Specifically, UapAG411V1-11 (hereinafter, referred to as “UapA”) was expressed in combination with GFP in Saccharomyces cerevisiae FGY217 strains and isolated into a sample buffer (20 mM Tris (pH 7.5), 150 mM NaCl, 0.03% DDM, and 0.6 mM xanthine) according to the method described in the paper (Mol. Membr. Biol. 2013, 30, 32-42) written by J. Leung et al. The membranes containing UapA were diluted to a final protein concentration of 2.8 mg ml^−1 in PBS (pH 7.4) supplemented with either 1% DDM or 1% RMAs or RGAs. […]

[2] = biological target: T2, human β2 adrenergic receptor (β2AR) (Homo sapiens, UniProt P07550); experiment: β2AR stability, [3H]-dihydroalprenolol (DHA) ligand binding assay; format: biochemical; conditions: for maintaining the ligand binding characteristic of the receptor compared to DDM: 0 hour, CMC+0.2 wt %, [3H]-DHA
T2 construct: made in house
Experimental: (§1) FIGS. 10A and 10B illustrate a result of measuring the effect of RGAs on the stability of β2AR after (a) 0 hour and (b) over time. Protein-ligand binding characteristics were measured via ligand binding assay using [^3H]-dihydroalprenolol (DHA), and the measurement was carried out by sampling a protein sample at regular intervals during 2 days of storage at room temperature.
as §1, with “12A” for “10A”, “12B” for “10B”, “RMAs” for “RGAs”
An experiment was carried out to measure the structural stability of a human (32 adrenergic receptor (β2AR) and a G protein-coupled receptor (GPCR) caused by RGAs and RMAs. That is, a receptor purified with DDM was diluted with a buffer solution containing only each RGA and RMA without cholesteryl hemisuccinate (CHS) or a buffer solution containing CHS and DDM. The final concentration of the compound was CMC+0.2 wt %, and the ligand binding characteristic of the receptor was measured using [^3H]-dihydroalprenolol ([^3H]-DHA) binding.
Specifically, radioligand binding assay was carried out using the following method. β2AR was purified using 0.1% DDM according to the method described in a paper (Science, 2007, 318, 1266-1273.) written by D. M. Rosenbaum et al. and finally concentrated to about 10 mg/ml (about 200 μM). The β2AR purified with DDM was used to prepare a master binding mixture containing 10 nM [^3H]-dihydroalprenolol (DHA) supplemented with 0.5 mg/ml BSA in a 0.2% amphipathic compound (DDM, RGAs or RMAs). The receptor purified with DDM, RGAs or RMAs was incubated with 10 nM [^3H]-DHA at room temperature for 30 minutes. The mixture was loaded into a G-50 column, the flow-through was collected with 1 ml of a binding buffer (20 mM HEPES pH 7.5, 100 mM NaCl, supplemented with 0.5 mg/ml BSA and 20×CMC individual amphipathic compound, and the G-50 column was further filled with 15 ml of a scintillation fluid. Receptor-bound [^3H]-DHA was measured with a scintillation counter (Beckman). The binding capacity of [^3H]-DHA was measured and shown in a column graph. Each experiment was performed in triplicate.

[3] = Hydrodynamic radius and size distribution of micelles by dynamic light scattering (DLS); format: physicochemical; conditions: compound 1.0 wt %
Experimental: A method of measuring the radius of a micelle is not particularly limited and may be any method generally known in the art. For example, the radius may be measured by a dynamic light scattering (DLS) experiment.
(§2) Specifically, critical micelle concentrations (CMCs) were measured using a fluorescence dye, diphenylhexatriene (DPH), and hydrodynamic radii (Rh) of micelles formed of each compound (1.0 wt %) were measured by a dynamic light scattering (DLS) experiment. Measured results are shown in Table 1 in comparison with values of DDM as an existing amphipathic molecule (detergent).
Meanwhile, size distributions of the micelles formed by RGAs and RMAs were measured using DLS.

[4] = Critical micelle concentration by fluorescence dye diphenylhexatriene (DPH); format: physicochemical; conditions: DPH fluorescence
Experimental: A method of measuring the CMC is not particularly limited and may be any method generally known in the art. For example, the CMC may be measured according to a fluorescence staining method using diphenylhexatriene (DPH).
as §2

[5] = biological target: T2, human β2 adrenergic receptor (β2AR); experiment: Size exclusion chromatography (SEC) of β2AR receptor-detergent complex; conditions: 20×CMC detergent
Experimental: FIG. 11 illustrates a result of evaluating the size characteristic of a (32AR protein-ligand binding complex formed of RGA-C11, RGA-C13, or DDM via a size exclusion chromatography (SEC) test.
In addition, a size exclusion chromatography (SEC) test was conducted. Specifically, β2AR purified with 0.1% DDM was loaded on a M1 Flag column in the presence of 2 mM CaCl2, and the column was washed with a DDM, RGA-C11 or RGA-C13 detergent buffer (20 mM HEPES pH 7.5, 100 mM NaCl, 0.2% individual amphipathic compound). The receptor was eluted with 20×CMC DDM, RGA-C11, or RGA-C13 with 5 mM EDTA and 0.2 mg/ml free Flag peptide. The eluate was further added to a Superdex-200 10/300 GL column (GE Healthcare) at 0.5 ml/min, and UV absorbance at 280 nm was recorded. The running buffer contained 20 mM HEPES pH 7.5, 100 mM NaCl, 20×CMC individual detergent (DDM, RGA-C11 and RGA-C13).

[6] = biological target: T3, Salmonella typhimurium melibiose permease (MelB) (Salmonella typhimurium, UniProt P30878); experiment: MelB extraction and solubility after 90 min incubation, SDS-PAGE and western blotting; format: biochemical; conditions: 55° C., 1.5 wt %
T3 construct: made in house; host or cells: E. coli DW2 (melB and lacZY deleted), plasmid pK95AHB/WT MelBSt/CH10
Experimental: FIGS. 9A and 9B illustrate a result of measuring the amount of a MelB protein dissolved in an aqueous solution after a MelB protein was extracted at four temperatures (0, 45, 55, and 65) using RGAs or DDM at a concentration of 1.5 wt % and then incubated at the same temperatures for 90 minutes:
RGAs were selected, and an experiment was carried out to measure the structural stability of a Salmonella typhimurium melibiose permease (MelB) caused by RGAs. A MelB protein was extracted from a membrane using RGAs or DDM, and the amount and structure of the protein thus extracted was then analyzed by performing SDS-PAGE and western blotting. In this case, the concentration of the used amphipathic compound was 1.5 wt %. The protein was extracted at four temperatures (0, 45, 55, and 65° C.) and then incubated at the same temperatures for 90 minutes. Subsequently, two kinds of performance of the compound, that is, protein extraction efficiency and protein stability were evaluated at the same time by measuring the amount of a protein which remained dissolved in an aqueous solution. The amount of a protein which was extracted and stabilized by an individual amphipathic molecule was expressed as a relative value (%) with respect to the amount of the entire protein included in a membrane sample not treated with an amphipathic molecule.
Specifically, a C-terminal 10-His-tagged Salmonella typhimurium melibiose permease (MelBSt) was expressed in E. coli DW2 cells (melB and lacZY) using plasmid pK95AHB/WT MelBSt/CH10. Cells were grown and membranes were prepared according to the method described in a paper (Nat. Commun. 2014, 5, 3009) written by A. S. Ethayathulla et al. A protein assay was carried out with a Micro BCA kit (Thermo Scientific, Rockford, Ill.). RGAs and DDM were evaluated to measure the stability of MelBSt according to the protocol described in a paper (Nat. Methods 2010, 7, 1003-1008) written by P. S. Chae et al. The membrane sample (final protein concentration of 10 mg/mL) containing MelBSt was incubated in a solubilization buffer containing 1.5% (w/v) DDM or RGAs (20 mM sodium phosphate, pH 7.5, 200 mM NaCl, 10% glycerol, and 20 mM melibiose) at four temperatures (0, 45, 55, and 65° C.) for 90 minutes. An insoluble material was removed by ultracentrifugation at 355,590 g at 4° C. for 45 minutes using a Beckman Optima™ MAX ultracentrifuge equipped with a TLA-100 rotor. A dissolved portion was separated by SDS-16% PAGE, and immunoblotting was then performed using a Penta-His-HRP antibody (Qiagen, Germantown, Md.). A membrane fraction containing 20 μg of protein without treatment was used to illustrate the overall MelB, and the treated samples were loaded into each well in equal volume. MelBSt was measured using the SuperSignal West Pico Chemiluminescent substrate by ImageQuant LAS 4000 Biomolecular Imager (GE Healthcare Life Sciences).

T2 sequence (P07550 whole entry): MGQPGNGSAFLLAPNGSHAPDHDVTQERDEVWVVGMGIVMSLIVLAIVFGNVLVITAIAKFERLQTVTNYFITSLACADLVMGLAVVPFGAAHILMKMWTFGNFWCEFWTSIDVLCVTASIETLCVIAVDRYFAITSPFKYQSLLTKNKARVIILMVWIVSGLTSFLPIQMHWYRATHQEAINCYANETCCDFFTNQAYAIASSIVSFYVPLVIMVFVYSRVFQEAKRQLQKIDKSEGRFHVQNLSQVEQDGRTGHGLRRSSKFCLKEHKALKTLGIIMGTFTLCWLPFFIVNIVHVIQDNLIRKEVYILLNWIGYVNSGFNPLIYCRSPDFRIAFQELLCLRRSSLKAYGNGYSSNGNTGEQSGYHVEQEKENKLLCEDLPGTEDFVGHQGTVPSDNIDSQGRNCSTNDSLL
T3 sequence (P30878 whole entry): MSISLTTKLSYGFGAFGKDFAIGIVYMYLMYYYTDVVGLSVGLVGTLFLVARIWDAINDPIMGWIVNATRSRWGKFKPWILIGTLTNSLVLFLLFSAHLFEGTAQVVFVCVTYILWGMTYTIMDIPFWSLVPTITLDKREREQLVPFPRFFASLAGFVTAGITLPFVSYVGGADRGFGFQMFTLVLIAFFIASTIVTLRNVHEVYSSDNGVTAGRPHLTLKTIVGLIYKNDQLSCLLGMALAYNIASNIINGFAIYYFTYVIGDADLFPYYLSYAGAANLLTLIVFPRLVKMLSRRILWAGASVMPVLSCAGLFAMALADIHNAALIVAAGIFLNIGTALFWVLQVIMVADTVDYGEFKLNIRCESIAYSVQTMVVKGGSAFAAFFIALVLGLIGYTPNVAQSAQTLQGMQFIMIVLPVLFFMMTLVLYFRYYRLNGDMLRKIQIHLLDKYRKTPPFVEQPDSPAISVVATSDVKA
T1 sequence (Q07307 12-574 G411V): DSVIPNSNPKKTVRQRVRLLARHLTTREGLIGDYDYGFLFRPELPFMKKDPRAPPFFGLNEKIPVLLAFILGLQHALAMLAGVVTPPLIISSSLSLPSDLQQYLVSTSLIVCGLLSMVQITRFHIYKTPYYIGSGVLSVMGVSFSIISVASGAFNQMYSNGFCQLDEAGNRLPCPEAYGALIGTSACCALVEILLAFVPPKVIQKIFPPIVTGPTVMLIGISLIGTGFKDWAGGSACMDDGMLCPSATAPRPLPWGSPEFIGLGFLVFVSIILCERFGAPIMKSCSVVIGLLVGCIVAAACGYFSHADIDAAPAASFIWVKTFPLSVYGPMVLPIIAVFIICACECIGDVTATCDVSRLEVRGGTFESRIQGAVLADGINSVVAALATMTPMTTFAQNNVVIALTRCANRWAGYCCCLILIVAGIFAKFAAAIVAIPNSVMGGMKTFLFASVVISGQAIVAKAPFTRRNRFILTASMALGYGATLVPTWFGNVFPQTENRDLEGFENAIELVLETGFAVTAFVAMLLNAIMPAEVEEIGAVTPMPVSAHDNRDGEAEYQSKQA

| Compound | ability to maintain the UapA protein in a folded state compared to DDM [1] | maintaining the ligand binding characteristic of the receptor compared to DDM [2] | Rh (nm), hydrodynamic radius of micelles [3] [nm] | CMC [4] [µM] | CMC (wt %) [4] [wt %] | size of receptor-detergent complex [5] | ability to maintain the ligand binding of the receptor over time compared to DDM ([2]; 2 days at room temperature, early stage (0 to 12 h)) | receptor stability / ligand binding maintenance relative to DDM (fold, in words) ([2]; incubation at room temperature, early stage) | MelB protein extraction efficiency and solubility [6] |
| --- | --- | --- | --- | --- | --- | --- | --- | --- | --- |
| CCCCCCCC[C@H]1c2cc(c(OCCO[C@@H]3OC(CO)[C@@H](O)[C@H](O)C3O)cc2OCCO[C@@H]2OC(CO)[C@@H](O)[C@H](O)C2O)[C@H](CCCCCCCC)c2cc(c(OCCO[C@@H]3OC(CO)[C@@H](O)[C@H](O)C3O)cc2OCCO[C@@H]2OC(CO)[C@@H](O)[C@H](O)C2O)[C@@H](CCCCCCCC)c2cc(c(OCCO[C@@H]3OC(CO)[C@@H](O)[C@H](O)C3O)cc2OCCO[C@@H]2OC(CO)[C@@H](O)[C@H](O)C2O)[C@@H](CCCCCCCC)c2cc1c(OCCO[C@@H]1OC(CO)[C@@H](O)[C@H](O)C1O)cc2OCCO[C@@H]1OC(CO)[C@@H](O)[C@H](O)C1O (stereo partly drawn) [RGA-C9] | highest effect | inferior to DDM | 2.9 ± 0.1 | ~7 | ~0.018 | – | – | – | – |
| CCCCCCCCCCCC[C@H]1c2cc(c(OCCO[C@@H]3OC(CO)[C@@H](O)[C@H](O)C3O)cc2OCCO[C@@H]2OC(CO)[C@@H](O)[C@H](O)C2O)[C@H](CCCCCCCCCCCC)c2cc(c(OCCO[C@@H]3OC(CO)[C@@H](O)[C@H](O)C3O)cc2OCCO[C@@H]2OC(CO)[C@@H](O)[C@H](O)C2O)[C@@H](CCCCCCCCCCCC)c2cc(c(OCCO[C@@H]3OC(CO)[C@@H](O)[C@H](O)C3O)cc2OCCO[C@@H]2OC(CO)[C@@H](O)[C@H](O)C2O)[C@@H](CCCCCCCCCCCC)c2cc1c(OCCO[C@@H]1OC(CO)[C@@H](O)[C@H](O)C1O)cc2OCCO[C@@H]1OC(CO)[C@@H](O)[C@H](O)C1O (stereo partly drawn) [RGA-C13] | – | superior to DDM | 3.7 ± 0.1 | – | ~0.0056 | significantly smaller than that formed of DDM | superior ability to maintain the ligand binding of the receptor compared to DDM | enhanced by almost three times | maintained MelB solubility better than DDM; also recorded: higher protein extraction efficiency than DDM |
